Results taken from patent US20250108038A1 (priority 2023, published 2025).
pIC50: −log10 of the molar value.

Key:
CYP1A2 = biological target: T1, CYP1A2 (Homo sapiens, UniProt P05177)
T1 sequence (P05177 1-516): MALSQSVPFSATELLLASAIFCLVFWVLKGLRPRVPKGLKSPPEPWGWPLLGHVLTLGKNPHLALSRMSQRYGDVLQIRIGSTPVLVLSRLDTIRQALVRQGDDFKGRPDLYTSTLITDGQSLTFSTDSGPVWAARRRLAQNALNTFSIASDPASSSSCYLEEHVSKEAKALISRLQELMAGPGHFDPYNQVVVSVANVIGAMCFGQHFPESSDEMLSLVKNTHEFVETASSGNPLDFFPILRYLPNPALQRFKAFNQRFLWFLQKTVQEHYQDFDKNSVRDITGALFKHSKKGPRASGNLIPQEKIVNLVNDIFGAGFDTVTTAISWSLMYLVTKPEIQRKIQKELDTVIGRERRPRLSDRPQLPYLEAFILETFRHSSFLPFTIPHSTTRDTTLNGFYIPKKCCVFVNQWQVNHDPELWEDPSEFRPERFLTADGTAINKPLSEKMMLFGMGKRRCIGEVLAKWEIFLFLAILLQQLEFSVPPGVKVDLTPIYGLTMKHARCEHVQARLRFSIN

Wistar rats = test: Five Choice Serial Reaction Time Task, vITI version, repeated administration; format: in vivo, Wistar rat; design: Latency (Correct) / Latency (Incorrect): unit not given here; conditions: for Latency (Correct) / Latency (Incorrect) / Magazine Head Entries / Omissions / Reward Latency / Trials Completed: vITI, mean ± SEM
Text: The behavioral tasks utilized were three versions of the rat Five Choice Serial Reaction Time Task (5C-SRTT), the standard version of the task (STD) with a fixed stimulus duration and a fixed intertrial interval, the variable stimulus duration (vSD) and the variable intertrial interval (vITI) version. The principal readout parameters in each task were the % Hit and the % correct choices (measures of sustained attention) and three measures of inhibitory response control (premature, perseverative, and timeout responses), although a number of additional outcome measures were obtained (see under Methods and Results below).
Twenty-four adult (approx. 10 months old) male Wistar rats (Envigo, Inc, Indianapolis, IN) were used in the study. […] Subjects were double housed in polycarbonate cages (45×30×18 cm) with corncob bedding in a vivarium of constant temperature (21-23° C.) and humidity (40-50%). […] All behavioral testing was performed during the light portion (9 a.m.-5 p.m.) of the light/dark cycle (Monday thru Friday). Animals were cared for in accordance with the Guide for the Care and Use of Laboratory Animals (U.S. National Institutes of Health) and the experimental protocols were approved by the Institutional Animal Care and Use Committee at Augusta University (Protocol #2010-0044).
The 5C-SRTT procedure (reviewed, Robbins, 2002. Psychopharmacology (Berl); 163(3-4):362-80) was conducted as we have described previously (Terry et al., 2014, Neurotoxicology and Teratology 44:18-29, 2014; Callahan et al., 2020, Neuropharmacology. August 15; 173:107994). […] Animals were trained in eight automated 5C-SRTT operant chambers (Med Associates, St. Albans, VT, USA), controlled by MedPC software (Med Associates). Briefly, each operant chamber was equipped with 5 apertures containing a photocell beam to detect nose pokes and a lamp (2.8 W) that could be illuminated randomly at varying durations. Food pellets (45 mg chow pellet, BioServ, Frenchtown, NJ, USA) were delivered automatically to a magazine, located on the opposite wall to the nose pokes, that was also equipped with a light that turned on to indicate that a pellet had been dispensed. The house-light remained on for the entire session unless an error or omission occurred. Training sessions began with the delivery of a food reward and retrieval triggered the first trial. […] Sessions ended when 40 minutes had lapsed or 100 trials had been completed.
For this study, subjects were re-trained 5 days per week until they re-established a stable performance criteria with a fixed (1.0 sec) stimulus duration and a fixed ITI (5 sec) of 70-75% accuracy, <20% omissions and completion of all 100 trials for 5 consecutive days. Upon meeting these performance criteria animals were trained for one additional week and two groups of subjects (N=12) were assembled and balanced according to their performance accuracy, specifically the % Hit evaluation, which takes into account correct responses as well as all incorrect responses including the number of omissions. […] The vSD version of the task increases the attentional load while the vITI increases impulsivity-like behavior. The following outcome measures and behavioral domains were assessed: % Hit and % correct=sustained attention; omissions=attention/motivation; premature responses=impulsivity; perseverative responses=compulsivity; timeout responses=cognitive inflexibility; magazine head entries=appetitive motivation and compulsivity-like behavior; response latencies=information processing speed and/or motivation. For the STD version of the task, the stimulus duration (SD) was fixed at 1.0 sec and the ITI was fixed at 5 sec. In the vSD version of the task the following stimulus durations were presented in a pseudorandom manner: 0.3, 0.6, and 0.9 sec. In the vITI version, 2.5, 5.0, and 10.0 sec ITIs were employed in a pseudorandom manner. […]

CYP2D6 = CYP2D6 (Homo sapiens, UniProt P10635); test: biochemical
Sequence of CYP2D6 (P10635 whole entry): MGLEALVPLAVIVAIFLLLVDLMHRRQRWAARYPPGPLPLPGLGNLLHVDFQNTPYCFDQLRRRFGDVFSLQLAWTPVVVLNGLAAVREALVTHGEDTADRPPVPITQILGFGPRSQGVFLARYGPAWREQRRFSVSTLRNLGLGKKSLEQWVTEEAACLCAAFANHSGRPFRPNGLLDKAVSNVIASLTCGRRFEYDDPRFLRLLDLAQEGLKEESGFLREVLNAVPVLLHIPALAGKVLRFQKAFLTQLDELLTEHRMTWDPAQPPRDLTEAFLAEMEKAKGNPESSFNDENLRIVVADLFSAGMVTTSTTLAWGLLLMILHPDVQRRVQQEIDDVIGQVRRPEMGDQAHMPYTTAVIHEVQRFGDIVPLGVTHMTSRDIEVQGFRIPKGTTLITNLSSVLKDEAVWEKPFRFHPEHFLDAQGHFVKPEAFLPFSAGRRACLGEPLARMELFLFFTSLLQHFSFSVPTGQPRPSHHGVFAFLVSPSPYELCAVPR

CYP2C19 = CYP2C19 (Homo sapiens, UniProt P33261); test: in vitro; conditions: both, pH 7.4
Sequence of CYP2C19 (P33261 whole entry): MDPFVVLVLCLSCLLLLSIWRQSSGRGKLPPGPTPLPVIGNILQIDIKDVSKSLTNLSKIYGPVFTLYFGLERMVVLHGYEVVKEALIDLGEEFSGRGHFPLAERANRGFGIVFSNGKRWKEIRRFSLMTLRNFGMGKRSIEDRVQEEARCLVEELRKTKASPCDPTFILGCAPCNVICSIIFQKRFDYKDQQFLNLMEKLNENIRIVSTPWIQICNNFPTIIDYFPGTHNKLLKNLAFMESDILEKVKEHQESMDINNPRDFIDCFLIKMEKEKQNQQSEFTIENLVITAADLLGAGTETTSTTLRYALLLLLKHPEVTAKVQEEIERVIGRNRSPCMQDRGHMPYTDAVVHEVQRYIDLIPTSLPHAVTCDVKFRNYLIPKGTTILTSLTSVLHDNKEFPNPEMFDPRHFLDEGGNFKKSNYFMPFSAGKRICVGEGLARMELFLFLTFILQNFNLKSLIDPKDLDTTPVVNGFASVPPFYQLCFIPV

[1] = Stability in beagle dog plasma
Procedure: Pooled (N≥3) male SD rat, beagle dog and mixed gender human plasma with EDTA-K2 as anticoagulant were purchased from BioIVT (NY, USA) and stored in a −70° C. freezer before use.
Incubations were conducted in 96-well plate format. The time points defined for this study are 0, 5, 15, 30 and 60 minutes.
For positive controls, the rat plasma was spiked with enalapril, the dog plasma spiked with bisacodyl and the human plasma was spiked with propantheline. All spiked plasma sample plates were incubated in a water bath at 37° C. with shaking.
At end of each time point, samples were immediately quenched with three volume of cold quenching solution. All sample plates were mixed thoroughly by shaking for approximately 10 minutes and centrifuged at 3220×g for 15 minutes. Subsequently, 100 μL of supernatant was removed from each well, mixed with 100 μL water in a new 96-well plate and subjected to LC-MS/MS analysis.
Concentrations of test article, metabolite, and control compounds in the samples were analyzed by LC-MS/MS semi-quantitatively. […] The peak area ratios of analyte/internal standard were used to semi-quantitatively determine the concentrations.
The peak area ratios (PAR) of analyte/internal standard were used to semi-quantitatively determine the concentration of test article and control compounds, and calculate the percent remaining with the following equation:
The elimination rate (ke) was calculated from a log linear plot of % remaining versus time. The half-life was calculated using the following equation:

[2] = repeated 0.1 and 0.3 mg/kg IP, 10 sec ITI
[3] = Group 1, 0.1 mg/kg, Drug Exp period
[4] = Group 1, 0.1 mg/kg, Post-Drug Exp (vehicle washout) period
[5] = Group 2, 0.3 mg/kg, Drug Exp period
[6] = Group 2, 0.3 mg/kg, Post-Drug Exp (vehicle washout) period

In the case of `Clc1ccc(C2(OCC3OCCO3)c3ccccc3C3=NCCN32)cc1` (centres unmarked) [Compound I-19], the “Inhibition at Highest Test Article Concentration” value (CYP1A2; 1A2, Phenacetin, at 50 μM) was 18.2 at 50 μM %, the IC50 (CYP1A2; pooled human liver microsomes, 30 min) was “did not inhibit” and the “% Hit” value (Wistar rats; repeated 0.1 and 0.3 mg/kg IP) was “modest decrease in accuracy that was limited to the 2.5 sec ITI”. For the same compound, the premature responses (Wistar rats; [2]) was “reduced the number of premature responses compared to both the pre- and post-drug conditions at the 10 sec ITI”, the timeout responses (Wistar rats; [2]) was “reduced the number of timeout responses compared to both the pre- and post-drug conditions at the 10 sec ITI” and the “Latency (Correct)” value (Wistar rats; [3]) was 0.99. For the same compound, the “Latency (Incorrect)” value (Wistar rats; [3]) was 2.27 ± 0.12, the “Magazine Head Entries” value (Wistar rats; [3]) was 236.13 and the Omissions (Wistar rats; [3]) was 17.04. For the same compound, the “Reward Latency” value (Wistar rats; [3]) was 2.77, the “Trials Completed” value (Wistar rats; [3]) was 91.83 ± 4.15 and the “Latency (Correct)” value (Wistar rats; [4]) was 0.90 ± 0.03. The “Latency (Incorrect)” value (Wistar rats; [4]) was 2.03 ± 0.09, the “Magazine Head Entries” value (Wistar rats; [4]) was 318.71 ± 34.88 and the Omissions (Wistar rats; [4]) was 9.63 ± 1.15. For the same compound, the “Reward Latency” value (Wistar rats; [4]) was 2.13, the “Trials Completed” value (Wistar rats; [4]) was 85.62 ± 4.17 and the “Latency (Correct)” value (Wistar rats; [5]) was 0.97. The “Latency (Incorrect)” value (Wistar rats; [5]) was 2.26, the “Magazine Head Entries” value (Wistar rats; [5]) was 268.17 and the Omissions (Wistar rats; [5]) was 13.42. For the same compound, the “Reward Latency” value (Wistar rats; [5]) was 3.21, the “Trials Completed” value (Wistar rats; [5]) was 87.50 and the “Latency (Correct)” value (Wistar rats; [6]) was 0.81 ± 0.03. The “Latency (Incorrect)” value (Wistar rats; [6]) was 1.82 ± 0.10, the “Magazine Head Entries” value (Wistar rats; [6]) was 415.04 ± 70.50 and the Omissions (Wistar rats; [6]) was 6.75 ± 1.44. The “Reward Latency” value (Wistar rats; [6]) was 2.06 and the “Trials Completed” value (Wistar rats; [6]) was 78.46 ± 4.47.
Compound `OC1(c2ccc(Cl)cc2)c2ccccc2C2=NCCN21` (centres unmarked) [Compound A, 5-(4-chlorophenyl)-2,3-dihydroimidazo[1,2-b]isoindol-5-ol, reference compound] has a pIC50 (CYP2D6) of 5.38 and an inhibition at 10 µM (CYP2C19) of 16.5%.
With `COCCOC1(c2ccc(Cl)cc2)c2ccccc2C2=NCCN21` (centres unmarked) [Compound I-4] the “Compound A formed (Aa/Ai)” value ([1]; 0 min) was 0.48, the “% Remaining” value ([1]; 2.0 μM, 0 min) was 100% and the “Aa/Ai Mean (N = 2)” value ([1]; 2.0 μM, 0 min) was 2.24. For the same compound, the “% Remaining” value ([1]; 2.0 μM, 5 min) was 93.5%, the “Aa/Ai Mean (N = 2)” value ([1]; 2.0 μM, 5 min) was 2.10 and the “% Remaining” value ([1]; 2.0 μM, 15 min) was 92.0%. The “Aa/Ai Mean (N = 2)” value ([1]; 2.0 μM, 15 min) was 2.07, the “% Remaining” value ([1]; 2.0 μM, 30 min) was 89.2% and the “Aa/Ai Mean (N = 2)” value ([1]; 2.0 μM, 30 min) was 2.00. The “% Remaining” value ([1]; 2.0 μM, 60 min) was 83.7%, the “Aa/Ai Mean (N = 2)” value ([1]; 2.0 μM, 60 min) was 1.88 and the T1/2 ([1]; 2.0 μM, 60 min incubation) was over 3.12 h. The “Compound A formed (Aa/Ai)” value ([1]; 5 min) was 0.46, the “Compound A formed (Aa/Ai)” value ([1]; 15 min) was 0.46 and the “Compound A formed (Aa/Ai)” value ([1]; 30 min) was 0.42. For the same compound, the “Compound A formed (Aa/Ai)” value ([1]; 60 min) was 0.39.
